Several values for one entry are separate records, joined by “and”; a condition that tells them apart may be missing. Equal entries are not always repeated.
Assay: xn = mol fraction of the nth substance listed

CCCCCCCCn1cc[n+](C)c1.[Br-] + O + CCCCCC[n+]1ccn(C)c1.[Br-]
electrical conductivity, 101.3 kPa
Conditions | x2 = 0.8977, x1 = 0.04147 | x2 = 0.8977, x1 = 0.06092 | x2 = 0.8993, x1 = 0.02123 | x2 = 0.8993, x1 = 0.07955 | x2 = 0.9473, x1 = 0.02113 | x2 = 0.9473, x1 = 0.03155 | x2 = 0.9477, x1 = 0.01078 | x2 = 0.9477, x1 = 0.04155
293.15 K | 3.55 S/m and 3.56 S/m and 3.57 S/m | 3.41 S/m and 3.44 S/m (2×) | 3.68 S/m and 3.69 S/m | 3.3 S/m and 3.31 S/m and 3.32 S/m | 3.98 S/m and 4 S/m and 4.01 S/m | 3.83 S/m and 3.85 S/m and 3.87 S/m | 4.14 S/m (2×) and 4.16 S/m | 3.7 S/m and 3.71 S/m and 3.72 S/m
298.15 K | 4.11 S/m and 4.12 S/m | 3.95 S/m and 3.96 S/m and 3.98 S/m | 4.25 S/m and 4.26 S/m | 3.81 S/m and 3.83 S/m and 3.84 S/m | 4.56 S/m and 4.6 S/m and 4.61 S/m | 4.4 S/m and 4.44 S/m (2×) | 4.74 S/m and 4.76 S/m and 4.77 S/m | 4.25 S/m and 4.26 S/m and 4.28 S/m
303.15 K | 4.67 S/m and 4.68 S/m and 4.7 S/m | 4.51 S/m and 4.52 S/m and 4.54 S/m | 4.85 S/m (2×) and 4.86 S/m | 4.36 S/m and 4.37 S/m and 4.38 S/m | 5.21 S/m and 5.22 S/m and 5.24 S/m | 5.01 S/m and 5.03 S/m and 5.05 S/m | 5.39 S/m and 5.4 S/m and 5.42 S/m | 4.84 S/m and 4.86 S/m and 4.87 S/m

CCOP(=O)([O-])OCC.CC[n+]1ccn(C)c1 + O + CS(C)=O
viscosity [mPa·s], 100 kPa
Conditions | 293.15 K | 303.15 K | 313.15 K | 323.15 K
x2 = 0.004, x3 = 0.497 | – | 53 | – | –
x2 = 0.005, x3 = 0.768 | – | – | 9.6 | 7.1
x2 = 0.008, x3 = 0.886 | 5.9 | – | 3.5 | 2.9

CCCC[N+]1(C)CCCC1.O=S(=O)([N-]S(=O)(=O)C(F)(F)F)C(F)(F)F + O=C1CCCO1
100 kPa
Conditions | electrical conductivity [S/m] | viscosity [mPa·s]
303.15 K, x2 = 0.2019 | 0.461 | 36.7
308.15 K, x2 = 0.1075 | 0.459 | 39.2
308.15 K, x2 = 0.3004 | 0.638 | 23.93
308.15 K, x2 = 0.9498 | 1.31 | –
313.15 K, x2 = 0.7009 | 1.67 | 5.75
313.15 K, x2 = 0.9498 | 1.41 | –
318.15 K, x2 = 0.2019 | 0.705 | 22.28
318.15 K, x2 = 0.8509 | 2.23 | –
318.15 K, x2 = 0.9498 | 1.5 | –
323.15 K, x2 = 0.3004 | 0.905 | 15.24
323.15 K, x2 = 0.5999 | 1.57 | 6.44
323.15 K, x2 = 0.7009 | 1.98 | 4.7
323.15 K, x2 = 0.9498 | 1.6 | –

CC[N+](C)(CC)CCOC.O=S(=O)([N-]S(=O)(=O)C(F)(F)F)C(F)(F)F + O=C1CCCO1
101 kPa
Conditions | electrical conductivity [S/m] | viscosity [mPa·s]
288.15 K, x1 = 0.1004 | 1.07 | 5.77
288.15 K, x1 = 0.2006 | 1.05 | 8.69
288.15 K, x1 = 0.4998 | 0.504 | 39.28
288.15 K, x1 = 0.6002 | 0.42 | 63.7
293.15 K, x1 = 0.1004 | 1.18 | 4.642
293.15 K, x1 = 0.3003 | 0.925 | 12.34
293.15 K, x1 = 0.4998 | 0.589 | 30.79
293.15 K, x1 = 1 | 0.184 | 162.2
298.15 K, x1 = 0.1004 | 1.305 | 3.697
298.15 K, x1 = 0.4007 | 0.841 | 15.12
303.15 K, x1 = 0.6999 | 0.592 | 39.92
303.15 K, x1 = 1 | 0.301 | 89.7
308.15 K, x1 = 0.3003 | 1.28 | 7.61
308.15 K, x1 = 0.4007 | 1.08 | 10.57
308.15 K, x1 = 0.4998 | 0.904 | 15.55
308.15 K, x1 = 0.9003 | 0.463 | 51.6
313.15 K, x1 = 0.1004 | 1.644 | 1.923
313.15 K, x1 = 0.2006 | 1.76 | 3.958
313.15 K, x1 = 0.8001 | 0.676 | 30.48
318.15 K, x1 = 0.6002 | 1.021 | 14.49
323.15 K, x1 = 0.2006 | 2.07 | 2.954
323.15 K, x1 = 0.4007 | 1.5 | 6.43
323.15 K, x1 = 0.4998 | 1.29 | 8.64
323.15 K, x1 = 0.6002 | 1.145 | 11.6
328.15 K, x1 = 0.6002 | 1.28 | 9.45
328.15 K, x1 = 1 | 0.706 | 26.35
333.15 K, x1 = 0.4007 | 1.812 | 4.73
333.15 K, x1 = 1 | 0.816 | 21.31
343.15 K, x1 = 0.3003 | 2.44 | 2.72
343.15 K, x1 = 0.4998 | 1.926 | 4.472
348.15 K, x1 = 0.4007 | 2.346 | 3.095
348.15 K, x1 = 0.6999 | 1.68 | 5.09
348.15 K, x1 = 0.9003 | 1.328 | 9.11
353.15 K, x1 = 0.2006 | 3.09 | 1.361
353.15 K, x1 = 0.3003 | 2.85 | 2.11
353.15 K, x1 = 0.6002 | 2.05 | 3.425
353.15 K, x1 = 0.9003 | 1.46 | 7.16

C1CCC2=NCCCN2CC1 + O=S(=O)([N-]S(=O)(=O)C(F)(F)F)C(F)(F)F.[Li+]
101 kPa, frequency 0 MHz, x1 = 0.8
Conditions | electrical conductivity [S/m]
328.15 K | 0.00259
338.15 K | 0.00474
348.15 K | 0.0114

101 kPa, x1 = 0.8
Conditions | viscosity [mPa·s]
328.15 K | 3336
348.15 K | 358
